Data: patent EP1247803A2, “Indolinone compounds suitable for modulation of protein kinases” (Sugen, Inc., priority 1996, dated 1998)

biological target: T1, EGFR (Homo sapiens, UniProt P00533); experiment: EGFR ELISA assay (in vitro kinase activity, EGFR captured from A431 cell lysate); format: biochemical; set-up: concentration or dose not given beside the values
T1 construct: Add 7 ug A431 cell lysate per well (EGFR source); endogenous in cells; host or cells: A431
Procedure, shortened: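 EGFR from A431 lysate was captured on anti-EGFR antibody-coated plates and preincubated with compounds for 30 min. Autophosphorylation ran 5 min with 3 uM ATP and 5 mM MnCl2 (final), stopped with 20 mM EDTA. Phosphotyrosine was detected by anti-pTyr ELISA with ABTS/H2O2, read at 410 nm.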

T1 sequence (P00533 25-1210): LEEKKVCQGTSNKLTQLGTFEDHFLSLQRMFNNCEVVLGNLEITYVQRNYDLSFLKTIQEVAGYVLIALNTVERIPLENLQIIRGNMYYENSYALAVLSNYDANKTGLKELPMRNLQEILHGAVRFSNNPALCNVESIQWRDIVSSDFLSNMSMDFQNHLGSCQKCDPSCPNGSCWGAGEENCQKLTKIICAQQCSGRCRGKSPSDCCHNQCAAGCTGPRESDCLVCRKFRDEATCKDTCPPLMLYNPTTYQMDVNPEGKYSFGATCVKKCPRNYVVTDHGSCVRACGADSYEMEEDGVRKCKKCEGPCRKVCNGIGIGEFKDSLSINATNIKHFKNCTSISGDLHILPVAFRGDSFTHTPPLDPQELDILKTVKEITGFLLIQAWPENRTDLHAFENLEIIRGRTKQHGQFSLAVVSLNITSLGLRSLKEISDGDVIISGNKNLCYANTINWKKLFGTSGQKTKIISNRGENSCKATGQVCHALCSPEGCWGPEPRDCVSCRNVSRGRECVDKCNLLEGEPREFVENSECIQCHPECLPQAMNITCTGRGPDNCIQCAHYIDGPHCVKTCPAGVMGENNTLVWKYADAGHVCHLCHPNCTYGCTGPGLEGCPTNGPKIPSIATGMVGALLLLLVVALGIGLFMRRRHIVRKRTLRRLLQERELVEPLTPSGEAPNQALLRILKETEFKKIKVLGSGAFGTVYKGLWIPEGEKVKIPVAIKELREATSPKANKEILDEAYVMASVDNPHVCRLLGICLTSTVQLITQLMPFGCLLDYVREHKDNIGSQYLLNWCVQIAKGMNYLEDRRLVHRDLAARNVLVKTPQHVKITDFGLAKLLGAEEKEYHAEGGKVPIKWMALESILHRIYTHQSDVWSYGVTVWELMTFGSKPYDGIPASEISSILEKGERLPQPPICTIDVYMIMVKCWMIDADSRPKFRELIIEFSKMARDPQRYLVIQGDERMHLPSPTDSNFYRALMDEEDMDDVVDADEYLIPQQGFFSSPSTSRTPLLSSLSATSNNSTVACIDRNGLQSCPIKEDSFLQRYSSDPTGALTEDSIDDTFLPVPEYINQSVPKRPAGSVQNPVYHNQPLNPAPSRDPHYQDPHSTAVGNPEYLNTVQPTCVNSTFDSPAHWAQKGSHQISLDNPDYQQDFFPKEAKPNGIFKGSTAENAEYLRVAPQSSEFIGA

Going from CNS(=O)(=O)c1ccc2c(c1)C(=Cc1[nH]c(C)c(Br)c1Br)C(=O)N2 [10717/D11] to CNS(=O)(=O)c1ccc2c(c1)C(=Cc1cc(O)c(O)c(Br)c1)C(=O)N2 [10723/D04], the “Biochem EGFR %Inhibition” value falls from 59.1% to 45.1%.

Compared with CCOc1ccccc1C=C1C(=O)Nc2ccc(S(=O)(=O)Nc3ccc(C(F)(F)F)cc3)cc21 [10717/E02], COc1cccc(C=C2C(=O)Nc3ccc(S(=O)(=O)Nc4ccc(C(F)(F)F)cc4)cc32)c1O [10723/E03] is lower in “Biochem EGFR %Inhibition” value: 17.2% for the first, 8.3% for the second.

Going from O=C1Nc2ccc(S(=O)(=O)Nc3ccc(C(F)(F)F)cc3)cc2C1=Cc1cccs1 [10717/E03] to Cn1cccc1C=C1C(=O)Nc2ccc(S(=O)(=O)Nc3ccc(C(F)(F)F)cc3)cc21 [10717/E04], the “Biochem EGFR %Inhibition” value falls from 11.7% to -28.3%.

Going from O=C1Nc2ccc(S(=O)(=O)Nc3ccc(C(F)(F)F)cc3)cc2C1=Cc1ccc(F)cc1 [10717/E05] to O=C1Nc2ccc(S(=O)(=O)Nc3ccc(C(F)(F)F)cc3)cc2C1=Cc1ccc(Br)cc1 [10717/E08], the “Biochem EGFR %Inhibition” value rises from 22.4% to 28.2%.

Compared with O=C1Nc2ccc(S(=O)(=O)Nc3ccc(C(F)(F)F)cc3)cc2C1=Cc1c[nH]c2ccccc12 [10717/E06], O=C1Nc2ccc(S(=O)(=O)Nc3ccc(C(F)(F)F)cc3)cc2C1=Cc1ccc(O)c(O)c1O [10723/E02] is higher in “Biochem EGFR %Inhibition” value: -26.1% for the first, 91.0% for the second.

Going from Cc1ccc(C=C2C(=O)Nc3ccc(S(=O)(=O)Nc4ccc(C(F)(F)F)cc4)cc32)s1 [10717/E07] to O=C1Nc2ccc(CCCl)cc2C1=Cc1ccc(C(F)(F)F)cc1 [10722/G11], the “Biochem EGFR %Inhibition” value falls from -7.8% to -39.4%.

Going from CC(C)(C)c1cc(C=C2C(=O)Nc3ccc(CCCl)cc32)cc([N+](=O)[O-])c1O [10722/G02] to CC(C)(C)c1cc(C=C2C(=O)Nc3ccc(CCCl)cc32)cc(Cl)c1O [10722/G08], the “Biochem EGFR %Inhibition” value falls from 27.3% to -8.5%.

Going from O=C1Nc2ccc(CCCl)cc2C1=Cc1c(O)cc(O)cc1O [10722/G03] to Cc1cc(C=C2C(=O)Nc3ccc(CCCl)cc32)cc(C)c1O [10722/G07], the “Biochem EGFR %Inhibition” value falls from 4.1% to -32.5%.

Going from O=C1Nc2ccc(CCCl)cc2C1=Cc1ccc([N+](=O)[O-])s1 [10722/G04] to O=C1Nc2ccc(CCCl)cc2C1=Cc1csc([N+](=O)[O-])c1 [10722/G09], the “Biochem EGFR %Inhibition” value rises from -13.3% to -5.9%.

Compared with O=C1Nc2ccc(CCCl)cc2C1=Cc1ccc(C(=O)O)cc1 [10722/G05], CCCCN(CCCC)c1ccc(C=C2C(=O)Nc3ccc(CCCl)cc32)cc1 [10722/G10] is higher in “Biochem EGFR %Inhibition” value: -9.0% for the first, 3.3% for the second.

First: O=C1Nc2ccc(CCCl)cc2C1=Cc1ccc(F)cc1F [10722/G06]
Second: O=C1Nc2ccc(I)cc2C1=Cc1ccc(O)cc1O [10723/B08]
The “Biochem EGFR %Inhibition” value of the first is lower: -5.2% for the first, -0.4% for the second.

Compared with O=C1Nc2c(Br)cc(Br)cc2C1=Cc1ccc(O)c(O)c1O [10723/A02], O=C1Nc2c(Br)cc(Br)cc2C1=Cc1ccc(O)cc1O [10723/A08] is lower in “Biochem EGFR %Inhibition” value: 97.8% for the first, -2.1% for the second.

Going from COc1cccc(C=C2C(=O)Nc3c(Br)cc(Br)cc32)c1O [10723/A03] to COc1ccc(C=C2C(=O)Nc3c(Br)cc(Br)cc32)c(O)c1 [10723/A09], the “Biochem EGFR %Inhibition” value falls from 38.5% to -4.5%.

Going from O=C1Nc2c(Br)cc(Br)cc2C1=Cc1cc(O)c(O)c(Br)c1 [10723/A04] to Cc1cc(C=C2C(=O)Nc3c(Br)cc(Br)cc32)ccc1O [10723/A06], the “Biochem EGFR %Inhibition” value falls from 30.8% to 20.1%.

Going from CC(=O)Oc1ccc(C=C2C(=O)Nc3c(Br)cc(Br)cc32)cc1OC(C)=O [10723/A05] to CC(=O)Oc1ccc(C=C2C(=O)Nc3ccc(Br)c(C)c32)cc1OC(C)=O [10723/C05], the “Biochem EGFR %Inhibition” value rises from 26.4% to 35.2%.

Compared with O=C1Nc2c(Br)cc(Br)cc2C1=Cc1ccccc1Br [10723/A07], O=C1Nc2c(Br)cc(Br)cc2C1=Cc1cccc(Br)c1 [10723/A10] is lower in “Biochem EGFR %Inhibition” value: 3.9% for the first, -24.8% for the second.

First: CC(C)(C)c1cc(C=C2C(=O)Nc3c(Br)cc(Br)cc32)c(O)c(C(C)(C)C)c1 [10723/A11]
Second: Cc1c(Br)ccc2c1C(=Cc1cc(C(C)(C)C)cc(C(C)(C)C)c1O)C(=O)N2 [10723/C11]
The “Biochem EGFR %Inhibition” value of the first is lower: -4.0% for the first, -1.1% for the second.

Going from O=C1Nc2ccc(I)cc2C1=Cc1ccc(O)c(O)c1O [10723/B02] to CNS(=O)(=O)c1ccc2c(c1)C(=Cc1ccc(O)c(O)c1O)C(=O)N2 [10723/D02], the “Biochem EGFR %Inhibition” value falls from 91.0% to 63.2%.

Compared with COc1cccc(C=C2C(=O)Nc3ccc(I)cc32)c1O [10723/B03], COc1ccc(C=C2C(=O)Nc3ccc(I)cc32)c(O)c1 [10723/B09] is lower in “Biochem EGFR %Inhibition” value: -5.0% for the first, -12.0% for the second.

First: O=C1Nc2ccc(I)cc2C1=Cc1cc(O)c(O)c(Br)c1 [10723/B04]
Second: Cc1c(Br)ccc2c1C(=Cc1cc(O)c(O)c(Br)c1)C(=O)N2 [10723/C04]
The “Biochem EGFR %Inhibition” value of the first is lower: 5.1% for the first, 23.5% for the second.

Compared with CC(=O)Oc1ccc(C=C2C(=O)Nc3ccc(I)cc32)cc1OC(C)=O [10723/B05], CNS(=O)(=O)c1ccc2c(c1)C(=Cc1ccc(OC(C)=O)c(OC(C)=O)c1)C(=O)N2 [10723/D05] is lower in “Biochem EGFR %Inhibition” value: 36.4% for the first, 3.7% for the second.

First: Cc1cc(C=C2C(=O)Nc3ccc(I)cc32)ccc1O [10723/B06]
Second: CNS(=O)(=O)c1ccc2c(c1)C(=Cc1ccc(O)c(C)c1)C(=O)N2 [10723/D06]
The “Biochem EGFR %Inhibition” value of the first is higher: 11.9% for the first, -7.4% for the second.

Going from O=C1Nc2ccc(I)cc2C1=Cc1ccccc1Br [10723/B07] to O=C1Nc2ccc(I)cc2C1=Cc1cccc(Br)c1 [10723/B10], the “Biochem EGFR %Inhibition” value falls from 28.8% to 1.8%.

Going from CC(C)(C)c1cc(C=C2C(=O)Nc3ccc(I)cc32)c(O)c(C(C)(C)C)c1 [10723/B11] to CNS(=O)(=O)c1ccc2c(c1)C(=Cc1cc(C(C)(C)C)cc(C(C)(C)C)c1O)C(=O)N2 [10723/D11], the “Biochem EGFR %Inhibition” value rises from -26.0% to -6.2%.

Compared with Cc1c(Br)ccc2c1C(=Cc1ccc(O)c(O)c1O)C(=O)N2 [10723/C02], Cc1c(Br)ccc2c1C(=Cc1ccc(O)cc1O)C(=O)N2 [10723/C08] is lower in “Biochem EGFR %Inhibition” value: 73.6% for the first, 45.0% for the second.

Going from COc1cccc(C=C2C(=O)Nc3ccc(Br)c(C)c32)c1O [10723/C03] to COc1ccc(C=C2C(=O)Nc3ccc(Br)c(C)c32)c(O)c1 [10723/C09], the “Biochem EGFR %Inhibition” value rises from 5.9% to 62.7%.

Compared with Cc1cc(C=C2C(=O)Nc3ccc(Br)c(C)c32)ccc1O [10723/C06], Cc1c(Br)ccc2c1C(=Cc1cccc(Br)c1)C(=O)N2 [10723/C10] is lower in “Biochem EGFR %Inhibition” value: -4.5% for the first, -7.2% for the second.

Compared with Cc1c(Br)ccc2c1C(=Cc1ccccc1Br)C(=O)N2 [10723/C07], CNS(=O)(=O)c1ccc2c(c1)C(=Cc1ccccc1Br)C(=O)N2 [10723/D07] is higher in “Biochem EGFR %Inhibition” value: -4.0% for the first, 13.4% for the second.

Going from CNS(=O)(=O)c1ccc2c(c1)C(=Cc1cccc(OC)c1O)C(=O)N2 [10723/D03] to CNS(=O)(=O)c1ccc2c(c1)C(=Cc1ccc(OC)cc1O)C(=O)N2 [10723/D09], the “Biochem EGFR %Inhibition” value falls from 33.5% to -3.8%.

Compared with CNS(=O)(=O)c1ccc2c(c1)C(=Cc1ccc(O)cc1O)C(=O)N2 [10723/D08], CNS(=O)(=O)c1ccc2c(c1)C(=Cc1cccc(Br)c1)C(=O)N2 [10723/D10] is lower in “Biochem EGFR %Inhibition” value: 4.9% for the first, -9.3% for the second.
